Laboratory results published in ChEMBL document CHEMBL5576087 (Bioorg Med Chem Lett, 2024).
Active and inactive are the calls of the source. No cut-off for these calls is given here.

Columns and labels:
HUVEC [1] = experiment: Antiangiogenesis activity in HUVEC cells assessed as inhibition of tube formation at 10 to 100 uM measured after 18 hrs; type: functional, cell-based; settings: Homo sapiens, dose 10-100 µM
Protein cereblon = Protein cereblon (Homo sapiens, UniProt Q96SW2); experiment: Binding affinity to human CRBN TBD (319 to 425 residues) assessed as inhibition constant by MST assay
HUVEC [2] = experiment: Antiproliferative activity against human HUVEC cells at 10 uM measured after 48 hrs by CCK-8 method; type: toxicity, cell-based
MM1.S [3] = experiment: Antiproliferative activity against human MM1.S cells at 10 uM measured after 72 hrs by CCK-8 method; type: functional, cell-based
MM1.S [4] = experiment: Effect on IKZF3 protein level in human MM1.S cells at 0.1 uM measured after 16 hrs by Western blot analysis; type: functional, cell-based
MM1.S [5] = experiment: Effect on CK1a protein level in human MM1.S cells at 0.1 uM measured after 16 hrs by Western blot analysis; type: functional, cell-based
MM1.S [6] = experiment: Effect on GSPT1 protein level in human MM1.S cells at 0.1 uM measured after 16 hrs by Western blot analysis; type: functional, cell-based
HuH-6 = experiment: Effect on SALL4 protein level in human HuH-6 cells at 0.1 uM measured after 16 hrs by Western blot analysis; type: functional, cell-based
HUVEC [7] = experiment: Inhibition of tube formation in HUVEC cells at 100 uM measured after 18 hrs relative to control; type: functional; settings: Homo sapiens
[8] = Metabolic stability in human liver microsomes assessed as half life measured upto 60 mins in presence of NADPH by LC/MS analysis; type: ADME, Microsome
HUVEC [9] = experiment: Antiproliferative activity against human HUVEC cells at 100 uM measured after 48 hrs by CCK-8 method; type: toxicity, cell-based
MM1.S [10] = experiment: Antiproliferative activity against human MM1.S cells at 100 uM measured after 72 hrs by CCK-8 method; type: functional, cell-based
HUVEC [11] = experiment: Antiangiogenesis activity in HUVEC cells assessed as inhibition of tube formation measured after 18 hrs; type: functional, cell-based; settings: Homo sapiens
HUVEC [12] = experiment: Antiproliferative activity against human HUVEC cells at 10 uM measured after 48 hrs by CCK-8 method relative to control; type: toxicity, cell-based

| Compound | Activity (HUVEC [1]) | Ki (Protein cereblon) | Activity (HUVEC [2]) | Activity (MM1.S [3]) | Activity (MM1.S [4]) | Activity (MM1.S [5]) | Activity (MM1.S [6]) | Activity (HuH-6) | inhibition at 100 µM (HUVEC [7]) [%] | half-life [8] [min] | Activity (HUVEC [9]) | Activity (MM1.S [10]) | inhibition (HUVEC [7]) | IC50 (HUVEC [11]) [µM] | Activity (HUVEC [12]) [%] |
| --- | --- | --- | --- | --- | --- | --- | --- | --- | --- | --- | --- | --- | --- | --- | --- |
| CC(C)N1C(=O)NC(=O)C(C)(NC(=O)c2cc(F)c(F)c(F)c2F)C1=O (centres undefined) | inactive | Not Active | Non-Toxic | inactive | inactive | inactive | inactive | inactive | – | – | – | – | – | – | – |
| CCOCCNc1cccc2c1C(=O)N(C1CCC(=O)NC1=O)C2=O (centres undefined) | – | – | – | – | – | – | – | – | 50 | – | – | – | – | – | – |
| CC(C)N1C(=O)NC(=O)C(C)(N2C(=O)c3ccccc3C2=O)C1=O (centres undefined) | inactive | Not Active | Non-Toxic | inactive | inactive | inactive | inactive | inactive | – | 19.3 | – | – | – | – | – |
| O=C1CCC(NC(=O)c2cc(F)c(F)c(F)c2F)C(=O)N1 (centres undefined) | inactive | – | Non-Toxic | inactive | inactive | inactive | inactive | inactive | – | – | – | – | – | – | – |
| O=C1CCC(N2C(=O)c3ccccc3C2=O)C(=O)N1 (centres undefined) [THALIDOMIDE] | inactive | – | – | – | inactive | inactive | inactive | inactive | – | – | Non-Toxic | inactive | – | – | – |
| CC(C)N1C(=O)NC(=O)C(C)(NC(=O)c2ccccc2)C1=O (centres undefined) | inactive | Not Active | Non-Toxic | inactive | inactive | inactive | inactive | inactive | – | – | – | – | – | – | – |
| O=C1CCC(NC(=O)c2cc(F)c(F)cc2F)C(=O)N1 (centres undefined) | – | – | – | – | – | – | – | – | – | – | – | – | inactive | – | – |
| CC(C)N1C(=O)NC(=O)C(C)(N2C(=O)c3c(F)c(F)c(F)c(F)c3C2=O)C1=O (centres undefined) | – | Not Active | – | – | inactive | inactive | inactive | inactive | – | – | – | – | – | 2.8 | > 95 |
| O=C1CCC(NC(=O)c2ccccc2)C(=O)N1 (centres undefined) | inactive | – | Non-Toxic | inactive | inactive | inactive | inactive | inactive | – | – | – | – | – | – | – |
| O=C1CCC(N2C(=O)c3c(F)c(F)c(F)c(F)c3C2=O)C(=O)N1 (centres undefined) | – | – | – | – | inactive | inactive | inactive | inactive | – | – | – | – | – | – | – |
